Consider five molecules from patent US20220031798A1, “METHODS AND COMPOSITIONS FOR THE TREATMENT OF OPIOID DEPENDENCE AND FOR THE TREATMENT OF PAIN” (Duke University, priority 2018, published 2022).

Entries after “also recorded” stand apart in the source; their conditions may differ. Residues, ends and D or L forms follow the SMILES beside them.

In series [1] the test system is morphine-dependent Sprague-Dawley rats. The series is described as follows: Naloxone-precipitated opioid withdrawal signs after 5-day morphine regimen. The format is in vivo, rat. As to conditions: for Withdrawal signs after naloxone challenge on Day 9: Study 2: adolescent male and female rats, 5 days morphine, then 3 days ketamine 1 mg/kg bid or rapastinel 5 mg/kg alternate days i.p., naloxone 1 mg/kg; for Withdrawal signs after naloxone challenge on day 9, adolescent vs adult: Study 3: adolescent and adult rats. As to the method: Male and female adolescent and adult Sprague-Dawley rats (PN 28-30 and PN 60-75) from Charles River Laboratories were treated with a 5-day, increasing dose morphine regimen (5 mg/kg bid, increasing 5 mg/kg/day to 25 mg/kg) to induce opioid dependency. Animals were group-housed in a 12/12 light/dark cycle with free access to water and standard lab chow. Agents were administered by intraperitoneal injection. In Study 1, animals received morphine (25 mg/kg) on day 6 followed 1 hour later by a naloxone challenge (1 mg/kg) and withdrawal behaviors were quantified as described by Gellert and Holtzman (J Pharmacol Exp Ther. 1978; 205(3):536-546). A second morphine/naloxone challenge was given 21 days later (study day 27). In Study 2 (see FIG. 1), male and female adolescent rats received the same morphine treatment, but on day 6 they received naloxone only (1 mg/kg) to precipitate withdrawal and withdrawal signs (wet dog shakes, diarrhea, mastication, salivation, ptosis and abnormal posture) were assessed as in Study 1. Then animals received saline, ketamine (1 mg/kg, bid) or rapastinel (5 mg/kg on alternate days). On day 9, animals received a second naloxone challenge (1 mg/kg) without a previous morphine treatment, and withdrawal signs were quantified to measure efficacy of ketamine and rapastinel. Study 3 compared the ability of rapastinel to accelerate the loss of opioid withdrawal signs in adult and adolescent rats and Study 4 compared rapastinel effects in male and female adults. Treatment results were analyzed by sequential 3-way (age×sex×treatment) and 1 way (treatment) ANOVA using NCSS followed by post-hoc Fishers LSD multiple comparison test to compare differences between groups. All experiments were approved by the Duke University IACUC and conducted in accordance with the NIH Guide for the Care and Use of Laboratory Animals.
Opioid withdrawal: Animals are treated with saline or naloxone as described. Ten minutes later they are scored by a modification of the Gellert/Holtzman scale for wet dog shakes, diarrhea, mastication, salivation, ptosis and abnormal posture.

In another series the test system is morphine-dependent rats. The experiment in a line: Withdrawal-precipitated hyperalgesia, von Frey test of pain sensitivity. Type of series: in vivo, rat. An excerpt: FIG. 6. Schematic for withdrawal-precipitated hyperalgesia studies and schematic for von Frey test of pain sensitivity.
There was no difference in hyperalgesia caused by morphine withdrawal before treatment; there was significant expression of naloxone-precipitated hyperalgesia in morphine dependent animals.

The conditions of series [2]: animal models (Moskal et al., 2016); cited from earlier work.
For series [3], the system named is adult male and female rats. The series is described as follows: Relapse to morphine conditioned place preference (CPP). Particulars: rapastinel 5 mg/kg during extinction days 6-9 and before relapse test, morphine 2.5 mg/kg. The format is in vivo, rat. As to the method:
CPP and extinction were conducted in adult male and female rats with a biased CPP procedure adapted from Mueller et al. (Mueller et al., Behavior. Brain Res 136: 389-397(2002)). CPP is conducted in a two-sided chamber. Side 1 had white walls and plexiglass flooring, and Side 2 had black walls and plastic mesh flooring (preferred side).
Rats went through a conditioned place preference procedure involving daily pairing with saline and morphine (2.5 mg/kg) on opposite sides of the CPP apparatus for 4 days. On habituation day (day 1), animals were allowed to explore the whole apparatus for 30 minutes. On days 2-4, rats were restricted to Side 1 for morphine (2.5 mg/kg sc) and Side 2 for saline (alternated am and pm daily). On day 5 they received a test of conditioning in which they were allowed to explore the whole apparatus. For the next 4 days (days 6-9) they received daily saline or rapastinel (5 mg/kg) 30 minutes before twice daily extinction trials in which animals received saline on both sides of the apparatus. They received an extinction test in which they were allowed to explore the entire apparatus on day 10, and then a relapse test on day 11 in which they received a dose of saline or rapastinel, followed by saline or 2.5 mg/kg of morphine and were allowed to explore the apparatus.
N=5 for rapastinel and 3 for saline.

For a further series, the system named is GluR1. The series is described as follows: GluR1 expression in medial prefrontal cortex by Western blot. The format is in vivo, rat. As to conditions: mPFC dissected at end of treatment. As to the method: The medial prefrontal cortex (mPFC) Brain Region is responsible for decision making in the context of reward (opioids) and penalty (withdrawal). Rats were treated with morphine in accordance with the methods of Example 1. The mPFC was dissected from rats at end of treatment and GluR1 expression levels were measured with a Western Blot test.

For series [4] the following is noted: humans; cited from earlier work.
For series [5] the following is noted: animal models; cited from earlier work.

As to `C[C@@H](O)[C@H](N)C(=O)N1CCCC1C(=O)N1CCC[C@H]1C(=O)N[C@H](C(N)=O)[C@@H](C)O` (stereo partly drawn) [Rapastinel, rapastinel] (HELM PEPTIDE1{T.[O=C(C1CCCN1[*:1])[*:2]].P.T.[am]}$$$$V2.0), in series [1], the “Withdrawal signs after naloxone challenge on Day 9” value is given as “extinguished naloxone-precipitated withdrawal; also recorded: caused an enhanced loss of opioid withdrawal signs; also recorded: accelerated loss of withdrawal signs”. Further, the “Withdrawal signs after naloxone challenge on day 9, adolescent vs adult” value in series [1] (5 days morphine then 3 days saline or rapastinel) is “extinguished naloxone-precipitated withdrawal comparably in adolescent and adult rats; also recorded: accelerated extinction of opioid withdrawal at both ages; also recorded: significantly enhanced recovery from opioid dependence in both adolescent and adult rats”; in series [1] (5 days morphine then 3 days saline or rapastinel, listed as rapastinel), “effective”. Moreover, in series [1] (Study 4: male and female rats, 5 days morphine then 3 days saline or rapastinel), the “Withdrawal signs after naloxone challenge on day 9, male vs female” value was “extinguished naloxone-precipitated withdrawal comparably in male and female rats”. Moreover, the Hyperalgesia scores result in the series with morphine-dependent rats (morphine-dependent rats, Day 9 following treatment) was “trend towards a return to baseline (SS) hyperalgesia scores; also recorded: blunts hyperalgesia”. For the same molecule, the “Baseline (SS) hyperalgesia response” value in the series with morphine-dependent rats (saline (morphine-naive) rats) was “does not alter baseline (SS) response”. Further, the “Negative side effects during treatment” value in series [2] is listed as “has not been shown to produce any negative side effects”. In addition, the “Difference in time spent on drug-paired side, day 11 (relapse test) vs day 10 (extinction trial)” value is “blocks relapse to conditioned place preference” in series [3] and “blunted morphine-induced relapse” in series [3] (listed as rapastinel). Besides, the “GluR1 expression in the mPFC” value in the series with GluR1 is recorded as “no significant effect”.
Consider `N[C@@H]1CON=C1O` [d-cycloserine], for which, in series [4], the Half-life result is given as “short half-life”. Besides, the “CPP extinction and naloxone place aversion” value in series [5] was “facilitated CPP extinction and naloxone place aversion”.
With `CNC1(c2ccccc2Cl)CCCCC1=O` (stereo not drawn) [ketamine], the “Withdrawal signs after naloxone challenge on Day 9” value in series [1] was “not ketamine extinguished naloxone-precipitated withdrawal; also recorded: not ketamine caused an enhanced loss of opioid withdrawal signs; also recorded: not ketamine accelerated loss of withdrawal signs; also recorded: only marginally effective”.
With `CN1CC[C@]23c4c5ccc(O)c4O[C@H]2[C@@H](O)C=C[C@H]3[C@H]1C5` [morphine], in the series on GluR1, the “GluR1 expression in the mPFC” value is listed as “higher expression of GluR1; also recorded: significantly (p<0.001) higher GluR1 expression”.
Turning to `C=CCN1CC[C@]23c4c5ccc(O)c4O[C@H]2C(=O)CC[C@@]3(O)[C@H]1C5` [naloxone], the “Withdrawal response to morphine/naloxone challenge on Day 6” value in series [1] (Study 1: 5 days morphine, morphine 25 mg/kg then naloxone 1 mg/kg 1 hour later, adolescent and adult rats) was “elicited a robust withdrawal response”.
